This note sets out measurements from ChEMBL document CHEMBL5728757, “Cyano substituted heteroarylpyrimidinone derivative, preparation method and use thereof” (2021).

Usually IC50 stands for the concentration needed to halve the response being measured.

The target in this assay is Acetyl-CoA carboxylase 1 (Homo sapiens, UniProt Q13085). Description: etermination of IC50 of Inhibition of Enzymatic Activity of ACC1 and ACC2 by the Compound of the Present Disclosure: The degree of inhibition of the enzymatic activity of recombinant human ACC1, ACC2 proteins under in-vitro conditions by the preferred compounds of the present disclosure is determined by the following method.The principle of the method was based on the reaction of ACC protein-catalyzed acetyl-CoA to form malonyl-CoA. ATP was consumed during this reaction and ADP was produced. The produced ADP was reconverted into ATP by using ADP-Glo™ Kinase Kit from Promega. This part of ATP reacted with the luciferase-fluorescence in the kit, and generated chemiluminescent signals. Thus, by measuring the intensity of chemiluminescent signal, the amount of ADP produced in the catalytic reaction was reflected, thereby indirectly determining the enzymatic activity of ACC protein and the effect of the tested compound on the enzymatic activity. […]. (In general: ADP-Glo turns the ADP formed in a reaction into a luminescent signal.)

Turning to `CCOc1ccc(F)cc1[C@H](Cn1c(=O)n(C(C)(C)C(N)=O)c(=O)c2c(C)c(C#N)sc21)OC1CCOCC1`, the 50% inhibitory concentration (IC50) worked out at 13.1 nM.
